According to publication PMC2263054, “Functional evolution of the vitamin D and pregnane X receptors” (BMC Evolutionary Biology, 2007):

Key:
[1] = molecular target: T1, Xenopus laevis VDR (Xenopus laevis, UniProt O13124); assay: luciferase reporter transactivation assay in HepG2-NTCP cells, GAL4/xlVDR LBD chimera with tk-UAS-Luc; type: cell-based; settings: screening for activators, at least three concentrations of each drug
T1 sequence (O13124 90-422): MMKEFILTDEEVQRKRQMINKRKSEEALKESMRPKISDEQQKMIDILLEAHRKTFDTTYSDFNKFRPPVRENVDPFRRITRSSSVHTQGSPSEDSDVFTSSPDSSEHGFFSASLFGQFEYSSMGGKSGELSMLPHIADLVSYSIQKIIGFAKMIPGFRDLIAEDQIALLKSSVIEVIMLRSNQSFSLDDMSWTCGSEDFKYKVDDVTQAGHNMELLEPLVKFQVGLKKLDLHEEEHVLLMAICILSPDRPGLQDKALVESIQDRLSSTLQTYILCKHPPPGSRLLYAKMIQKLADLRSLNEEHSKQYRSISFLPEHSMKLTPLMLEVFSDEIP

[2] = molecular target: T2, Zebrafish VDR (Danio rerio, UniProt Q9PTN2); assay: luciferase reporter transactivation assay in HepG2-NTCP cells, GAL4/zfVDR LBD chimera with tk-UAS-Luc; type: cell-based; settings: screening for activators, at least three concentrations of each drug
T2 sequence (Q9PTN2 121-453): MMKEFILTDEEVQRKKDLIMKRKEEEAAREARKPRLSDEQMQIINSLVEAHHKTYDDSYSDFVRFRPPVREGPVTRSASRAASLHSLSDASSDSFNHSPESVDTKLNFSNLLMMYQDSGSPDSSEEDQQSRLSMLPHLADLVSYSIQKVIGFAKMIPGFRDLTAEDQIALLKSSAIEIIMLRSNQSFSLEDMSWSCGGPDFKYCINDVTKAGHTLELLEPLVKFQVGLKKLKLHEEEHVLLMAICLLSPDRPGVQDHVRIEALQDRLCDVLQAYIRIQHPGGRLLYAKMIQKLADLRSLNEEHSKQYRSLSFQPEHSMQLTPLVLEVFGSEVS

[3] = molecular target: T3, Sea lamprey VDR (Petromyzon marinus, UniProt Q7ZZY9); type: cell-based; settings: screening for activators, at least three concentrations of each drug
T3 sequence (Q7ZZY9 92-406): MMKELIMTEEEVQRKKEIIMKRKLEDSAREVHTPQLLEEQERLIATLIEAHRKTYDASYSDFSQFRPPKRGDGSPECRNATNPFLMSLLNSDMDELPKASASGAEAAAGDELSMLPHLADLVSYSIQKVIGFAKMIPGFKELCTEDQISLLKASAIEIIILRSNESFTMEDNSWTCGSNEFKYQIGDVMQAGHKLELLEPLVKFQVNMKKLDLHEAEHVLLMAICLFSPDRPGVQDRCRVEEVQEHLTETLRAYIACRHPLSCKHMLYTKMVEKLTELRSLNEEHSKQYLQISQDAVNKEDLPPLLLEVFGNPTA

[4] = test system: β-actin; assay: zebrafish in vivo liver transcription, semi-quantitative RT-PCR: β-actin; settings: zebrafish, 15 mg/kg intraperitoneally, single dose, 48 hr
Protocol: (§1) Adult zebrafish were purchased from a commercial fish supplier and acclimatized for at least two-weeks in 20 L tanks with flow-through freshwater at 22°C. A single dose of 15 mg/kg of 5α-cyprinol, 5β-cyprinol 27-sulfate, 5α-scymnol or 5β-scymnol-27 sulfate, dissolved in saline, was injected intraperitoneally. A control group was injected with saline. After 48 hr, the animals were decapitated and livers of three fish (n = 5 each group) were removed, pooled and weighed, totalizing 15 fish per group. Fish were not fed throughout the experimental period. […].
(§2) To study the transcription of CYP3C1, ABCB5, PXR, GAPDH and β-actin genes in zebrafish, initial fragments of these genes were identified (Genbank: AW202769, Genbank: BQ284593, Genbank: AAM22215, Genbank: BC083506, Genbank: AF057040, respectively). The PCR primers for CYP3C1 were designed using MacVector Software and primers for MDR1 were designed using Primer 3 Software (Whitehead Institute for Biomedical Research; [75]). Primer pairs for amplifying CYP3C1 fragment were 5'-[…]-3' (sense) and 5'-[…]-3' (antisense) and for amplifying ABCB5 were 5'-[…]-3' (sense) and 5'-[…]-3' (antisense). The PCR primers for PXR were 5'-[…]-3' (sense) and 5'-[…]-3' (antisense), for amplifying GAPDH were 5'-[…]-3' (sense) and 5' […] 3' (antisense) and for β-actin were 5'-[…]-3' (sense) and 5'-[…]-3' (antisense). RNA was isolated using Trizol (Invitrogen) according to manufacturer's instructions. Purity and concentration of RNA of each sample were verified at 260 nm. The RNA integrity was checked by non-denaturing gel electrophoresis using 1 μg of total RNA in each sample.
(§3) Two micrograms of total RNA were reversed transcribed using Ominiscript RT Kit (Qiagen, Valencia, CA, USA). cDNA concentration was checked at 260 nm, and the amount adjusted to 1 μg to perform semi-quantitative RT-PCR. The expected size of the PXR, Cyp3C1, abcb5, GAPDH and β-actin fragments were 577, 477, 218, 234 and 550 bp, respectively. Biotools DNA polymerase (Biotools B&M Labs, S.A., Madrid, Spain) kit was used for the PCR reaction using a thermocycler Personal Mastercycler (Eppendörf) with the following PCR program: 5 cycles of 94°C for 5 s, 72°C for 35 s; 5 cycles of 94°C for 5 s, 70°C for 10 s, 72°C for 35 s; and 23, 24, 35, 15 and 24 cycles (PXR, Cyp3C1, abcb5, GAPDH and β-actin, respectively) of 94°C for 5 s, 61, 54, 48, 49 and 61°C for 10 s (PXR, Cyp3C1, abcb5, GAPDH and β-actin, respectively), and 72°C for 35 s. The PXR, CYP3C1, ABCB5 and GAPDH transcript levels were quantified using Gel-Quant™ (Multiplexed Biotechologies) and β-actin was used to normalize the data. The Shapiro-Wilk W test was used to evaluate normality. When data were parametric the analysis was performed using Student t test; otherwise Mann Whitney U test was applied. […]

[5] = test system: glyceraldehyde 3-phosphate dehydrogenase (GAPDH); assay: zebrafish in vivo liver transcription, semi-quantitative RT-PCR: GAPDH; settings: 15 mg/kg intraperitoneally, single dose, 48 hr
Protocol: Adult zebrafish were purchased from a commercial fish supplier and acclimatized for at least two-weeks in 20 L tanks with flow-through freshwater at 22°C. A single dose of 15 mg/kg of 5α-cyprinol, 5β-cyprinol 27-sulfate, 5α-scymnol or 5β-scymnol-27 sulfate, dissolved in saline, was injected intraperitoneally. A control group was injected with saline. After 48 hr, the animals were decapitated and livers of three fish (n = 5 each group) were removed, pooled and weighed, totalizing 15 fish per group. Fish were not fed throughout the experimental period.
as §2, with “The PCR primers for CYP3C1 were designed using MacVector Software and primers for MDR1 were designed using Primer 3 Software (Whitehead Institute for Biomedical Research; [75]).” left out, “Purity and concentration of RNA of each sample were verified at 260 nm.” left out
The PXR, CYP3C1, ABCB5 and GAPDH transcript levels were quantified using Gel-Quant™ (Multiplexed Biotechologies) and β-actin was used to normalize the data. The Shapiro-Wilk W test was used to evaluate normality. When data were parametric the analysis was performed using Student t test; otherwise Mann Whitney U test was applied.

[6] = test system: MDR1 (tentatively classified as ABCB5 in zebrafish); assay: zebrafish in vivo liver transcription, semi-quantitative RT-PCR: MDR1; settings: zebrafish, 15 mg/kg intraperitoneally, single dose, 48 hr
Protocol: as §1, §2, §3

[7] = test system: PXR; assay: zebrafish in vivo liver transcription, semi-quantitative RT-PCR: PXR; settings: zebrafish, 15 mg/kg intraperitoneally, single dose, 48 hr
Protocol: as §1, §2, §3

[8] = test system: CYP3C1; assay: zebrafish in vivo liver transcription, semi-quantitative RT-PCR: CYP3C1; settings: zebrafish, 15 mg/kg intraperitoneally, single dose, 48 hr
Protocol: as §1, §2, §3

[9] = test system: zebrafish PXR; settings: ref [29],[53]; cited from earlier work
[10] = test system: 6β- and 12α-hydroxylation of testosterone; assay: testosterone hydroxylation (HPLC) in African clawed frog primary hepatocytes; type: cell-based, Xenopus laevis; settings: relative to vehicle control
Protocol: Xenopus laevis primary hepatocytes were cultured by a protocol adapted from a published report. Frogs are sacrificed with MS-222, rinsed with 70% ethanol, and the liver lobes perfused via the heart, initially with 375 mL Barth (88 mM NaCl, 1 mM K2SO4, and 10 mM HEPES-NaOH, pH 7.4) containing 0.82 mM MgCl2 and 0.1 mg/mL heparin, and then with 25 mL Barth containing 2.22 mM Ca(NO3)2, 2.74 mM CaCl2, and 200 U/mL type I collagenase (Worthington Chemicals, Lakewood, NJ). Livers are minced to fine pieces in 12.5 mL Barth-collagenase solution and then incubated for 10 min at room temperature, periodically disaggregating the liver pieces with a Pasteur pipette. The liver cells are then placed on a shaking incubator for 5 min at room temperature, followed by another 10 min of periodic pipetting to complete disaggregation. Cells are then filtered through a 130 μm Nitex nylon mesh (Fisher Scientific), following by spinning at 500 g for 5 min at 4°C. The supernatant is then aspirated and diluted to 50 mL with Barth plus MgCl2 and then allowed to settle while cooled in ice for 30 min. The supernatant is removed, and the cellular pellet is resuspended and subjected to one more round of nylon mesh filtration, dilution in Barth plus MgCl2, and settling while cooled in ice. The supernatant is removed and the remaining cells are washed once with Barth plus MgCl2 and then centrifuged at 500 g for 5 min at 4°C. The cells are then resuspended in 0.6 × Coon's Modified Ham's F-12 medium (Invitrogen) supplemented with 0.1 × Barth (88 mM NaCl, 1 mM K2SO4, 10 mM HEPES), 200 U/mL penicillin G, 100 μg/mL streptomycin sulfate, 2 mM glutamine, 0.2% glucose, and 10 μg/mL bovine insulin (Calbiochem), with the final pH adjusted to 7.5. […] Cells are cultured at 20°C in ambient atmosphere.
Testosterone metabolites were identified and quantitated by HPLC. […] The supernatant was then injected into the HPLC.

[11] = test system: testosterone 6β-hydroxylation; assay: testosterone hydroxylation (HPLC) in sea lamprey primary hepatocytes; type: cell-based; settings: concentration ranges per compound
Protocol: (§4) 100 μL of sample, calibration standard, or quality material standard were pipetted into separate microcentrifuge tubes and mixed with 100 μL of methanol. Samples were vortexed and centrifuged at 13,000 rpm for 4 min. The supernatant was then injected into the HPLC.
(§5) The flow rate was 1.2 mL/min and total run time was 25 min.

[12] = test system: testosterone 6β-hydroxylation activity (CYP3A-like activity); assay: in vitro
Protocol: (§6) The cells are cultured at 26°C in ambient atmosphere.
as §4, §5

[13] = test system: EROD activity; assay: EROD assay in sea lamprey primary hepatocytes; settings: 24–48 hr exposure
[14] = test system: ethoxyresorufin O-deethylase (EROD) activity (CYP1A-like activity); assay: EROD assay in zebrafish primary hepatocytes; settings: zebrafish primary hepatocytes; DIM at concentrations of 2 μM and greater
Protocol: as §6

Row | SMILES | Effect on Xenopus laevis VDR [1] | Effect on zebrafish VDR [2] | Effect on sea lamprey VDR [3] | effect on 6β- and 12α-hydroxylation of testosterone [10] | effect on testosterone 6β-hydroxylation [11] | effect on EROD activity [13] | further results
1 | CC(CCC(O)C(CO)COS(=O)(=O)O)C1CCC2C3C(O)CC4CC(O)CCC4(C)C3CC(O)C12C (stereo not drawn) [5β-scymnol 27-sulfate] | No effect | No effect | No effect | – | – | – | liver transcription of β-actin [4]: 39.3 ± 17.5 arbitrary units; liver transcription of GAPDH [5]: 1.08 ± 0.50 arbitrary units normalized to β-actin; liver transcription of MDR1 (ABCB5) [6]: 1.50 ± 0.58 arbitrary units normalized to β-actin; liver transcription of PXR [7]: 0.75 ± 0.33 arbitrary units normalized to β-actin; liver transcription of CYP3C1 [8]: 1.33 ± 0.58 arbitrary units normalized to β-actin; activity at recombinant zebrafish PXR [9]: weaker activator of recombinant zebrafish PXR
2 | C[C@@H]1C[C@H]2[C@@H]3CCC4=CC(=O)C=C[C@]4(C)[C@@]3(F)[C@@H](O)C[C@]2(C)[C@@]1(O)C(=O)CO [Dexamethasone] | – | – | – | neither activity was substantially increased relative to vehicle control | None of these compounds produced significant increases in testosterone 6β-hydroxylation | – | –
3 | C[C@@]12CCC[C@H]1[C@@H]1CC[C@H]3C[C@H](O)CC[C@]3(C)[C@H]1CC2 [androstanol, 5α-androstan-3α-ol] | No effect | No effect | No effect | – | None of these compounds produced significant increases in testosterone 6β-hydroxylation | did not alter EROD activity | EC50 ([12]; zebrafish): 20 ± 2.7 µM; maximal rate of testosterone 6β-hydroxylation ([12]; zebrafish primary hepatocytes, 48-hour exposure): 717 pmol/min/mg protein
4 | CCOC(=O)c1cccc(N)c1 [3-aminoethylbenzoate] | – | – | – | neither activity was substantially increased relative to vehicle control | – | – | –
5 | C=C1/C(=C\C=C2/CCC[C@]3(C)[C@@H]([C@H](C)CCCC(C)(C)O)CC[C@@H]23)C[C@@H](O)C[C@@H]1O [1,25-(OH)2-Vitamin D3, 1α,25-(OH)2-vitamin D3] | – | – | – | neither activity was substantially increased relative to vehicle control | None of these compounds produced significant increases in testosterone 6β-hydroxylation | did not alter EROD activity | effect on EROD activity [14]: found not to affect EROD activity; effect on 6β-hydroxylation of testosterone ([12]; zebrafish primary hepatocytes, calcitriol 1–500 nM): did not increase 6β-hydroxylation of testosterone
